# Reference: article PMC5437844 (Journal of medicinal chemistry, 2017)
# “Also recorded” adds a separate entry of the source. Where two headings read alike, the source gives them in different places.
# Assays:
# [1] = system: vancomycin-resistant Enterococcus faecalis HM-201; experiment: Time-kill analysis; assay type: cell-based; settings: 4 × MIC, 24 hour incubation, 37 °C
# [2] = system: E. faecalis and E. faecium; experiment: MIC and MBC against strains of E. faecalis and E. faecium; assay type: cell-based
# [3] = system: Gram-negative pathogens; experiment: MIC against Gram-negative pathogens
# [4] = system: vancomycin-resistant Enterococcus faecium HM-968; experiment: Multi-step resistance selection; assay type: cell-based; settings: one-fold increase = MIC x → 2x
# [5] = polar aminoguanidine headgroup; source not stated; cited from earlier work
# [6] = system: vancomycin-resistant Enterococcus faecalis ATCC 51299; experiment: Multi-step resistance selection; assay type: cell-based; settings: one-fold increase = MIC x → 2x
# [7] = system: vancomycin-resistant Enterococcus faecium ATCC 700221; experiment: Time-kill analysis; assay type: cell-based; settings: 4 × MIC, 24 hour incubation, 37 °C
# [8] = system: E. faecalis; experiment: MIC against E. faecalis isolates; settings: Enterococcus faecalis
# [9] = system: human colorectal (HRT-18) cells; experiment: MTS cytotoxicity assay; assay type: cell-based; settings: for Non-toxic up to (concentration): tested 5-40 μg/mL
# [10] = system: vancomycin-resistant S. aureus (VRSA); settings: cited from earlier work
# [11] = system: E. faecalis ATCC 51299; experiment: Checkerboard assay; assay type: cell-based, Enterococcus faecalis; settings: antibiotic in combination with compound 1
# [12] = system: VRE; settings: administered orally, phase II clinical trial; cited from earlier work
# [13] = system: E. faecium (ATCC 700221); experiment: Re-sensitization of VRE to gentamicin; assay type: cell-based, Enterococcus faecium; settings: sub-inhibitory concentration of 1; data not shown
# [14] = system: E. faecalis (ATCC 51299); experiment: Re-sensitization of VRE to gentamicin; assay type: cell-based, Enterococcus faecalis; settings: sub-inhibitory concentration of 1; data not shown
# [15] = system: vancomycin-resistant Enterococcus faecalis HM-201; experiment: C. elegans VRE infection model; assay type: in vivo, Caenorhabditis elegans; settings: 20 μg/mL, treated for 18 hours, relative to untreated worms
# [16] = system: E. coli ΔtolC; experiment: Bacterial Cytological Profiling; assay type: cell-based, Escherichia coli; settings: 5 × MIC (25 μg/mL), two hours
# [17] = system: Caco-2; settings: polarized cell monolayer; ref not given; cited from earlier work
# [18] = system: E. faecalis NR-31975; experiment: UDP-N-acetylmuramyl-pentapeptide accumulation; assay type: cell-based, Enterococcus faecalis; settings: 10 × MIC, 30 minutes
# [19] = human liver microsomes; cited from earlier work
# [20] = system: C. elegans AU37; assay type: in vivo, Caenorhabditis elegans; settings: 20 μg/mL, 24 hours exposure
# [21] = target: human FPPS (HsFPPS) (Homo sapiens, UniProt P14324); experiment: HsFPPS inhibition assay; assay type: biochemical; settings: data not shown
# [22] = system: MRSA; settings: topical; cited from earlier work
# [23] = system: E. faecium ATCC 700221; experiment: Re-sensitization of VRE to vancomycin; assay type: cell-based, Enterococcus faecium; settings: for Fold-improvement in MIC of vancomycin: with ½ × MIC Compound 1
# [24] = system: E. faecalis HM-201; experiment: Re-sensitization of VRE to vancomycin; assay type: cell-based, Enterococcus faecalis; settings: for MIC: Enterococcus faecalis; for Fold-improvement in MIC of vancomycin: with ½ × MIC Compound 1
# [25] = system: E. faecalis HM-934; experiment: Re-sensitization of VRE to vancomycin; assay type: cell-based, Enterococcus faecalis; settings: for MIC: Enterococcus faecalis; for Fold-improvement in MIC of vancomycin: with ½ × MIC Compound 1
# [26] = system: E. faecium HM-968; experiment: Re-sensitization of VRE to vancomycin; assay type: cell-based, Enterococcus faecium; settings: for MIC: Enterococcus faecium; for Fold-improvement in MIC of vancomycin: with ½ × MIC Compound 1
# [27] = Gram-negative pathogens of Table 1, compound alone
# [28] = K. pneumoniae, P. aeruginosa and E. coli, tested alone
# [29] = K. pneumoniae, P. aeruginosa and E. coli, with sub-inhibitory colistin
# [30] = strains of E. faecalis and E. faecium
# Chain of human FPPS (HsFPPS) (P14324 whole entry): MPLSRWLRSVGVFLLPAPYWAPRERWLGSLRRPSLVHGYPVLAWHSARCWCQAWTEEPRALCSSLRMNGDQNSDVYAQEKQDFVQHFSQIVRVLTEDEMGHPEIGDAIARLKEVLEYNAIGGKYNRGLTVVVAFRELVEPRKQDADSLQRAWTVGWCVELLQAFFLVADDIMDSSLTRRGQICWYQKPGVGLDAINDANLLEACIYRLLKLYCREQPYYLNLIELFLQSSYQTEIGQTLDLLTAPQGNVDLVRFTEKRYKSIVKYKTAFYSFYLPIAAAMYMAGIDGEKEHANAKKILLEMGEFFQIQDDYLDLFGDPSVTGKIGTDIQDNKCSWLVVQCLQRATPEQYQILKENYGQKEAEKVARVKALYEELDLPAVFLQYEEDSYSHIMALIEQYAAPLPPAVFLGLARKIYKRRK
compound,measurement,setting,value
C/C(=N\NC(=N)N)c1sc(-c2ccc(-c3ccccc3)cc2)nc1C [Compound 2],Time-kill result (complete eradication of bacteria),[1],within two hours
same,MBC relative to MIC,[2]; against E. faecium,more than four-fold higher
same,MIC,[3]; [27],> 128 µg/mL
same,MIC,[3]; [28],> 128 µg/mL
same,MIC,[3]; [29],1 to 4 µg/mL
same,Shift in MIC over 14 serial passages,[4],one-fold increase
same,pKa,[5],~ 7
same,Shift in MIC over 14 serial passages,[6],a one-fold increase in MIC was observed after the sixth passage and an additional two-fold increase was observed after the eleventh passage
same,Time-kill result (complete eradication of bacteria),[7],not capable of completely eradicating the bacteria
same,MIC,[8],16 µg/mL
same,Toxic at (concentration),[9]; 24 hours incubation,40 µg/mL
same,Non-toxic up to (concentration),[9]; 24 hours incubation,20 µg/mL
same,Non-toxic up to (concentration),[9]; two hours incubation,40 µg/mL
same,Resensitization of VRSA to vancomycin,[10],capable of resensitizing
C[C@H]1c2cccc(O)c2C(=O)C2=C(O)[C@]3(O)C(=O)C(C(N)=O)=C(O)[C@@H](N(C)C)[C@@H]3[C@@H](O)[C@@H]21 [doxycycline],FIC index,[11],2.00
Ramoplanin,Patients with suppressed gastrointestinal colonization of VRE,[12],up to 90%
CNC(C)C1CCC(N)C(OC2C(N)CC(N)C(OC3OCC(C)(O)C(NC)C3O)C2O)O1 (stereo not shown) [gentamicin],Resensitization to gentamicin,[13],unable to resensitize
same,Resensitization to gentamicin,[14],unable to resensitize
"CC[C@H]1OC(=O)[C@H](C)[C@@H](O[C@H]2C[C@@](C)(OC)[C@@H](O)[C@H](C)O2)[C@H](C)[C@@H](O[C@@H]2O[C@H](C)C[C@H](N(C)C)[C@H]2O)[C@](C)(O)C[C@@H](C)C(=O)[C@H](C)[C@@H](O)[C@]1(C)O [Erythromycin, reference compound]",MIC,[3],> 128 µg/mL
same,MIC,[3]; [29],0.5 to 1 µg/mL
"CC(=O)NC[C@H]1CN(c2ccc(N3CCOCC3)c(F)c2)C(=O)O1 [Linezolid, reference compound]",Time-kill result (complete eradication of bacteria),[1],not able to generate a 10^3 × reduction in VRE CFU over 24 hours
same,MBC relative to MIC,[2]; [30],more than four-fold higher
same,Decrease in VRE burden in infected worms,[15],unable to reduce the burden of VRE
same,Shift in MIC over 14 serial passages,[4],one-fold increase
same,Shift in MIC over 14 serial passages,[6],No increase in MIC
same,Time-kill result (complete eradication of bacteria),[7],not able to generate a 10^3 × reduction in VRE CFU over 24 hours
CCCCc1ccc(-c2nc(C)c(/C(C)=N/NC(=N)N)s2)cc1 [Compound 1],Time-kill result (complete eradication of bacteria),[1],within two hours
same,Cytological effect,[16],cells lysed and formed spheroplasts
same,MBC relative to MIC,[2]; [30],equal to or one-fold higher
same,MIC,[3]; [27],8 to 64 µg/mL
same,"Caco-2 permeability, apical to basolateral",[17],limited ability to cross from the apical to basolateral surface
same,Shift in MIC over 14 serial passages,[4],no shift in the MIC
same,pKa,[5],~ 7
same,UDP-N-acetylmuramyl pentapeptide accumulation,[18],large increases
same,Shift in MIC over 14 serial passages,[6],one-fold increase
same,Affinity to hepatic microsomal enzymes,[19],high affinity to hepatic microsomal enzymes
same,Time-kill result (complete eradication of bacteria),[7],within two hours
same,Percent viable worms,[20],All worms survived
same,Inhibition of FPPS,[21],no inhibition
same,MIC,[8],1 to 8 µg/mL
same,Non-toxic up to (concentration),[9]; 24 hours incubation,20 µg/mL
same,Non-toxic up to (concentration),[9]; two hours incubation,20 µg/mL
same,Resensitization of VRSA to vancomycin,[10],resensitizes; also recorded: capable of resensitizing
CCCCC#Cc1ccc(-c2nc(C)c(/C(C)=N/NC(=N)N)s2)cc1 [Compound 3],Time-kill result (complete eradication of bacteria),[1],within two hours
same,MBC relative to MIC,[2]; [30],equal to or one-fold higher
same,MIC,[3]; [27],> 128 µg/mL
same,MIC,[3]; [28],> 128 µg/mL
same,MIC,[3]; [29],1 to 4 µg/mL
same,"Caco-2 permeability, apical to basolateral",[17],limited ability to cross from the apical to basolateral surface
same,Shift in MIC over 14 serial passages,[4],no shift in the MIC
same,pKa,[5],~ 7
same,Shift in MIC over 14 serial passages,[6],one-fold increase
same,Reduction of MRSA burden in infected skin wounds,[22],96%
same,Time-kill result (complete eradication of bacteria),[7],four hours
same,MIC,[8],1 to 8 µg/mL
same,Toxic at (concentration),[9]; 24 hours incubation,40 µg/mL
same,Non-toxic up to (concentration),[9]; 24 hours incubation,20 µg/mL
same,Non-toxic up to (concentration),[9]; two hours incubation,40 µg/mL
O=C(O)c1cn(C2CC2)c2cc(N3CCNCC3)c(F)cc2c1=O [ciprofloxacin],FIC index,[11],0.50
CN[C@H](CC(C)C)C(=O)N[C@H]1C(=O)N[C@@H](CC(N)=O)C(=O)N[C@H]2C(=O)N[C@H]3C(=O)N[C@H](C(=O)N[C@H](C(=O)O)c4cc(O)cc(O)c4-c4cc3ccc4O)[C@H](O)c3ccc(c(Cl)c3)Oc3cc2cc(c3O[C@@H]2O[C@H](CO)[C@@H](O)[C@H](O)[C@H]2O[C@H]2C[C@](C)(N)[C@H](O)[C@H](C)O2)Oc2ccc(cc2Cl)[C@H]1O [Vancomycin],MIC,"[23]; Enterococcus faecium, ATCC700221, read-out: MIC of vancomycin, vancomycin alone",256 µg/mL
same,Fold-improvement in MIC of vancomycin,[23],256-fold
same,Fold-improvement in MIC of vancomycin,[23]; listed as vancomycin,256 fold
same,MIC,"[24]; HM201, read-out: MIC of vancomycin, + ½ × MIC Compound 1",> 128 µg/mL
same,MIC,"[24]; HM201, read-out: MIC of vancomycin, vancomycin alone",512 µg/mL
same,Fold-improvement in MIC of vancomycin,[24],No change
same,Fold-improvement in MIC of vancomycin,[24]; listed as vancomycin,no resensitization
same,UDP-N-acetylmuramyl pentapeptide accumulation,[18],large increases
same,MIC,"[25]; HM934, read-out: MIC of vancomycin, + ½ × MIC Compound 1",> 128 µg/mL
same,MIC,"[25]; HM934, read-out: MIC of vancomycin, vancomycin alone",> 512 µg/mL
same,Fold-improvement in MIC of vancomycin,[25],No change
same,Fold-improvement in MIC of vancomycin,[25]; listed as vancomycin,no resensitization
same,MIC,"[26]; HM968, read-out: MIC of vancomycin, + ½ × MIC Compound 1",> 128 µg/mL
same,MIC,"[26]; HM968, read-out: MIC of vancomycin, vancomycin alone",1020 µg/mL
same,Fold-improvement in MIC of vancomycin,[26],No change
same,Fold-improvement in MIC of vancomycin,[26]; listed as vancomycin,no resensitization
CC1(C)S[C@@H]2[C@H](NC(=O)[C@H](N)c3ccccc3)C(=O)N2[C@H]1C(=O)O [ampicillin],FIC index,[11],3.00
